{
  "source": "patent US20090022806A1",
  "about": "“Nanoparticle and polymer formulations for thyroid hormone analogs, antagonists and formulations and uses thereof” (priority 2006, published 2009)",
  "key": {"[1]": {"test_system": "chick chorioallantoic membrane (CAM)", "assay": "Chick chorioallantoic membrane (CAM) assay of angiogenesis", "type": "in vivo", "conditions": "10^−7-10^−9 M", "protocol": "Chorioallantoic membrane (CAM) Model of Angiogenesis: In vivo Neovascularization was examined by methods described previously. 9-12 Ten-day-old chick embryos were purchased from SPAFAS (Preston, Conn.) and incubated at 37° C. with 55% relative humidity. A hypodermic needle was used to make a small hole in the shell concealing the air sac, and a second hole was made on the broad side of the egg, directly over an avascular portion of the embryonic membrane that was identified by candling. A false air sac was created beneath the second hole by the application of negative pressure at the first hole, causing the CAM to separate from the shell. A window approximately 1.0 cm 2 was cut in the shell over the dropped CAM with a small-crafts grinding wheel (Dremel, division of Emerson Electric Co.), allowing direct access to the underlying CAM. FGF2 (1 μg/mL) was used as a standard proangiogenic agent to induce new blood vessel branches on the CAM of 10-day-old embryos. Sterile disks of No. 1 filter paper (Whatman International) were pretreated with 3 mg/mL cortisone acetate and 1 mmol/L PTU and air dried under sterile conditions. Thyroid hormone, hormone analogues, FGF2 or control solvents, and inhibitors were then applied to the disks and the disks allowed to dry. The disks were then suspended in PBS and placed on growing CAMs. […] At 24 hours, the MAPK cascade inhibitor PD 98059 was also added to CAMs topically by means of the filter disks.\nAfter incubation at 37° C. with 55% relative humidity for 3 days, the CAM tissue directly beneath each filter disk was resected from control and treated CAM samples. Tissues were washed 3× with PBS, placed in 35-mm Petri dishes (Nalge Nunc), and examined under an SV6 stereomicroscope (Zeiss) at ×50 magnification. Digital images of CAM sections exposed to filters were collected using a 3-charge-coupled device color video camera system (Toshiba) and analyzed with Image-Pro software (Media Cybernetics). The number of vessel branch points contained in a circular region equal to the area of each filter disk were counted. One image was counted in each CAM preparation, and findings from 8 to 10 CAM preparations were analyzed for each treatment condition (thyroid hormone or analogues, FGF2, FGF2 antibody, PD 98059). In addition, each experiment was performed 3 times. The resulting angiogenesis index is the mean±SEM of new branch points in each set of samples.\nTen-day-old chick embryos were purchased £tom SPAFAS (Preston, Conn.) and were incubated at 37° C. with 55% relative humidity. A hypodermic needle was used to make a small hole in the blunt end of the egg and a second hole was made on the broad side of the egg, directly over an avascular portion of the embryonic membrane. Mild suction was applied to the first hole to displace the air sac and drop the CAM away from the shell. Using a Dremel model craft drill (Dremel, Racine, Wis.), a approx. 1.0 cm^2 window was cut in the shell over the false air sac, allowing access to the CAM. Sterile disks of No. 1 filter paper (Whatman, Clifton, N.J.) were pretreated with 3 mg/ml cortisone acetate and 1 mMm propylthiouracil and air dried under sterile conditions. […] The disks were then suspended in PBS and placed on growing CAMS. After incubation for 3 days, the CAM beneath the filter disk was resected and rinsed with PBS. Each membrane was placed in a 35 mm Petri dish and examined under an SV6 stereo-microscope at 50× magnification. Digital images were captured and analyzed with Image-Pro software (Mediacybemetics). The number of vessel branch points contained in a circular region equal to the filter disk were counted. One image from each of 8-10 CAM preparations for each treatment condition was counted, and in addition each experiment was performed 3 times.\nTen-day-old chick embryos were purchased from SPAFAS (Preston, Conn.) and were incubated at 37° C. with 55% relative humidity. Chick CAM assays were performed as previously described."}, "[2]": {"test_system": "EC migration toward the extracellular matrix protein vitronectin", "assay": "Cellular migration assay toward vitronectin (chemotaxis chamber)", "type": "cell-based", "conditions": "hormone 0.1 uM in upper chamber, vitronectin 25 ug in lower chamber", "method": "These assays were performed using a Neuroprobe 96 well disposable chemotaxis chamber with an 8 μm pore size. This chamber allowed for quantitation of cellular migration towards a gradient of either vitronectin or osteopontin. Cultured cells were removed following a standardized method using EDTA/Trypsin (0.01%/0.025%). Following removal, the cells were washed twice and resuspended (2×10^6/ml) in EBM (Endothelial cell basal media, Clonetics Inc.). Add either vitronectin or osteopontin (33 μl) at 0.0125-100 μg/ml to the lower wells of a disposable chemotaxis chamber, and then assemble using the preframed filter. The cell suspension (45 μl) was added to a polypropylene plate containing 5 μl of test agent at different concentrations and incubated for 10 minutes at 22° C. Add 25 μl of cell/test agent suspension to the upper filter wells then incubate overnight (22 hours at 37° C.) in a humidified cell culture incubator. After the overnight incubation, non-migrated cells and excess media were gently removed using a 12 channel pipette and a cell scraper. The filters were then washed twice in PBS (no Ca^+2 or Mg^+2) and fixed with 1% formaldehyde. Membranes of migrated cells were permeated with Triton X-100 (0.2%) then washed 2-3 times with PBS. […] Chemotaxis was quantitatively determined by fluorescence detection using a Cytofluor II (530 excitation/590 emission)."}, "[3]": {"test_system": "human dermal fibroblast cells", "assay": "In vitro 3D wound healing assay of human dermal fibroblast cells", "type": "cell-based", "conditions": "T4 between 0.1 μM and 1.0 μM", "protocol": "Step 1: Prepare contracted collagen gels: • 1) Coat 24-well plate with 350 ul 2% BSA at RT for 2 hr, • 2) 80% confluent NHDF (normal human dermal fibroblast cells, Passage 5-9) are trypsinized and neutralized with growth medium, centrifuge and wash once with PBS • 3) Prepare collagen-cell mixture, mix gently and always on ice:\n• 4) Aspire 2% BSA from 24 well plate, add collagen-cell mixture 350 ul/well, and incubate the plate in 37° C. CO2 incubator. • 5) After 1 hr, add DMEM+5% FBS medium 0.5 ml/well, use a 10 ul tip Detach the collagen gel from the edge of each well, then incubate for 2 days. The fibroblast cells will contract the collagen gel Step 2: Prepare 3D fibrin wound clot and embed wounded collagen culture • 1) Prepare fibrinogen solution (1 mg/ml) with or without testing regents. 350 ul fibrinogen solution for each well in eppendorf tube.\n• 2) Cut each contracted collagen gel from middle with scissors. Wash the gel with PBS and transfer the gel to the center of each well of 24 well plate • 3) Add 1.5 ul of human thrombin (0.25 U/ul) to each tube, mix well and then add the solution around the collagen gel, the solution will polymerize in 10 mins. After 20 mins, add DMEM+1% (or 5%) FBS with or without testing agent, 450 ul/well and incubate the plate in 37° C. CO2 incubator for up to 5 days. Take pictures on each day."}},
  "data": [
    {"smiles": "N[C@@H](Cc1cc(I)c(Oc2cc(I)c(O)c(I)c2)c(I)c1)C(=O)O", "note": "[T4, L-thyroxine]", "values": [
      {"measurement": "promotion of generation of new blood vessels from existing vessels", "setting": "[1]", "value": "two- to three-fold"},
      {"measurement": "Mean EC Migration (Fluorescence Units) + SD", "setting": "[2]", "value": "13,083 ± 276 Fluorescence Units"},
      {"measurement": "wound healing (outmigrating cells), Day 3", "setting": "[3]", "value": "increases wound healing"}
    ]}
  ]
}
